Test results from publication PMC6978316, “Development of chimeric peptides to facilitate the neutralisation of lipopolysaccharides during bactericidal targeting of multidrug-resistant Escherichia coli” (Communications Biology, 2020).

Columns and labels:
E. coli LPS = experiment: Sepsis mouse model, survival after lethal LPS challenge; type: in vivo, ICR mice; details: mice, LPS 13.5 mg per kg i.p.; 10 μmol per kg; 7 d; n = 5
Description: The mouse survival was recorded for 7 d. The mice injected with LPS or saline were used as negative or blank controls, respectively.

IκBα = experiment: Western blotting of lung tissues, IκBα/β-actin; type: in vivo, mice
Description: (§1) Additionally, the mice were sacrificed at 8 h and the lung tissues were homogenized and suspended in […] HEPES buffer for 20 min according to standard procedures. After centrifugation at 4 °C for 20 min (12,000 rpm), the protein levels of supernatants were quantified using a Bradford protein assay kit. A total of 30 μg proteins were analyzed on an 8–12% sodium dodecyl sulfate-polyacrylamide gel electrophoresis (SDS-PAGE) gel and were immunoblotted onto PVDF membranes, followed by an incubation with the primary antibodies of p65, p-p65, extracellular signal-regulated kinase (ERK)1/2, p-ERK1/2, and IκBα overnight at 4 °C. After washing, the blots were incubated with the peroxidase conjugated goat-rabbit or goat-mouse antibodies. Relative protein expression levels were quantified by a densitometric measurement of chemiluminescence (ECL) reaction band. β-actin was used as the internal reference.

ERK1/2 phosphorylation = experiment: Western blotting of lung tissues, p-ERK1/2/ERK1/2; type: in vivo, mice
Description: as §1

NF-κB p-p65 subunit = experiment: Western blotting of lung tissues, p-p65/p65; type: in vivo, mice
Description: as §1

binding of LPS to LBP = experiment: Binding of LPS to LBP on LPS-immobilized plate (ELISA); type: biochemical; details: mean of n = 3
Description: The 96-well microtiter plates were coated with 4 ng per ml LPS (0.1 M Na2CO3 and 20 mM EDTA, pH 9.6, 50 μl per well) overnight at 4 °C, washed three times with PBST, and blocked with PBS (containing 1% BSA) for 2 h. After washing with PBST again, the plates were incubated at 37 °C for 1 h with different concentrations of peptides (A6, G6, or N6), which were dissolved in Dulbecco's Modified Eagle's (DMEM) medium (containing 10% FBS). After washing, cells were incubated with anti-LBP mAb 6G3 (ThermoFisher) for 1 h at 37 °C and HRP-conjugated rabbit anti-mouse IgG for 1 h at room temperature, respectively. Tetramethylbenzidine (TMB) solution was then added and incubated for 25–30 min. Finally, the reaction was stopped by addition of 0.5 M H2SO4, and the absorbance was measured at 450 nm[50].

MDR E. coli CVCC195 = experiment: SEM and TEM, cell morphology and ultrastructure; type: cell-based, Escherichia coli; details: E. coli CVCC195, 4 × MIC, 2 h; at least 200 cells scored; manuscript lines quoted in the peer review file
Description: SEM was used to examine the ultrastructural changes in bacteria treated with peptides. […] PBS was used as the negative control. After centrifugation, the bacterial precipitation was added with 2.5% glutaraldehyde and the cells were fixed at 4 °C for 24 h. After ethanol dehydration, drying and coating, samples were visualized by a QUANTA200 SEM (FEI, Philips, Netherlands)[65].
The processing and preparation of TEM samples was similar to that of SEM until glutaraldehyde fixation. After washing with PBS, bacterial cells were fixed in 1% […] buffer for 1 h, dehydrated in a series of acetone (50–100%) and embedded, followed by preparation into ultra-thin sections and staining with 1% uranyl acetate. […] At least 200 bacterial cells were visualized and scored for the observed characteristics.

[1] = system: TNF-α, IL-6 and IL-10 in LPS-stimulated RAW 264.7 cells; experiment: Cytokines in LPS-stimulated macrophages (ELISA); type: cell-based, mouse; set-up: unit not given here
Description: Macrophages RAW 264.7 were incubated with LPS (0.1 and 1 μg per ml) that was dissolved in serum-free DMEM medium, and then were treated with A6, G6, N6, or PMB (20 μM) alone in 24-well plates (2.5 × 10^5 cells per well). The cells incubated with serum-free DMEM and LPS were used as a control. After treatment for 2 h, the supernatants were collected and assessed for TNF-α, IL-6, and IL-10 by using the ELISA kits in the Jiaxuan Biotech. Co. Ltd. (Beijing, China).
73 Supplementary Figure 15. Effects of SCPs on cytokines in RAW 264.7 ells. Cells were incubated with 0.1 μg per
74 ml (a) or 1 μg per ml (b) LPS and 20 μM A6, G6, N6 or PMB for 2 h. The levels of TNF-α, IL-6 and IL-10 in
75 supernatants were measured using ELISA. The data are given as the mean ± SD (n = 3 independent experiments).
76 Different lower case letters indicate a significant difference between two groups (p < 0.05).
(1 picture or pasted object on this page, not shown here)

[2] = lung tissue 8 h, LPS 13.5 mg per kg, western blotting, densitometry
[3] = RAW 264.7 cells incubated with 0.1 μg per ml LPS
[4] = RAW 264.7 cells incubated with 1 μg per ml LPS

polymyxin B [PMB]
survival (E. coli LPS): All mice survived | densitometric analysis of IκBα/β-actin ratio (IκBα; LPS + substance, Mean): 1.0324 | effect on LPS-induced IκBα levels (IκBα; lung tissue 8 h, LPS 13.5 mg per kg, western blotting): promoted LPS-induced IκBα levels | densitometric analysis of p-ERK1/2/ERK1/2 ratio (ERK1/2 phosphorylation; LPS + substance, Mean): 1.579 | attenuation of ERK1/2 phosphorylation (ERK1/2 phosphorylation; [2]): moderately promoted the ERK1/2 phosphorylation | densitometric analysis of p-p65/p65 ratio (NF-κB p-p65 subunit; LPS + substance, Mean): 0.01553 | inhibition of LPS-induced translocation of the NF-κB p-p65 subunit (NF-κB p-p65 subunit; [2]): 98.4% | LPS-LBP binding (relative), Mean (binding of LPS to LBP; 0.625 μM, LPS-coated plate, peptide in DMEM + 10% FBS, 37 °C, 1 h, anti-LBP mAb, OD450): 0.8274 | LPS-LBP binding (relative), Mean (binding of LPS to LBP; 1.25 μM): 0.5768 | LPS-LBP binding (relative), Mean (binding of LPS to LBP; 2.5 μM): 0.4491 | LPS-LBP binding (relative), Mean (binding of LPS to LBP; 5 μM): 0.3343 | LPS-LBP binding (relative), Mean (binding of LPS to LBP; 10 μM): 0.393 | LPS-LBP binding (relative), Mean (binding of LPS to LBP; 20 μM): 0.3466 | LPS-LBP binding (relative), Mean (binding of LPS to LBP; 40 μM): 0.2168 | abnormal cells in TEM (lysis, non-uniform cytoplasmic electron and morphologically abnormal cells) (MDR E. coli CVCC195): 1% | IL-6 Mean [1, 3]: 311.767 | IL-10 Mean [1, 3]: 122.2 | TNFα Mean [1, 3]: 546.867 | IL-6 Mean [1, 4]: 278.7 | IL-10 Mean [1, 4]: 116.9 | TNFα Mean [1, 4]: 447.633
